From the NIST ThermoML archive (doi:10.1021/je400839x)
Numbers after ± are expanded uncertainties.

How the values were obtained:
[1] = xn = mol fraction of the nth substance listed; conditions: 101 kPa, Liquid, x2 = 0; for viscosity: Concentric cylinders viscometry; for mass density: Vibrating tube method
[2] = for viscosity / speed of sound / mass density: 101 kPa, Liquid; for viscosity: Concentric cylinders viscometry; for speed of sound: Pulse-echo method; for mass density: Vibrating tube method

## CCCCCCCCCCCCCCCC [hexadecane] + CC(CC(C)(C)C)CC(C)(C)C
[1]; 293.15 K
  viscosity: 3.44 ± 0.02 mPa·s
  mass density: 773.7 ± 0.3 kg/m3
[1]; 303.15 K
  viscosity: 2.72 ± 0.02 mPa·s
  mass density: 766.8 ± 0.3 kg/m3
[1]; 313.15 K
  viscosity: 2.21 ± 0.02 mPa·s
  mass density: 759.9 ± 0.3 kg/m3
[1]; 323.15 K
  viscosity: 1.82 ± 0.01 mPa·s
  mass density: 752.9 ± 0.3 kg/m3
[1]; 333.15 K
  viscosity: 1.53 ± 0.01 mPa·s
  mass density: 746 ± 0.3 kg/m3
[1]; 343.15 K
  viscosity: 1.31 ± 0.01 mPa·s
  mass density: 739 ± 0.3 kg/m3
[1]; 353.15 K
  viscosity: 1.13 ± 0.01 mPa·s
  mass density: 731.9 ± 0.3 kg/m3
[1]; 363.15 K
  viscosity: 0.99 ± 0.009 mPa·s
  mass density: 724.8 ± 0.3 kg/m3
[1]; 373.15 K
  viscosity: 0.876 ± 0.009 mPa·s
  mass density: 717.7 ± 0.3 kg/m3

## CC(CC(C)(C)C)CC(C)(C)C [2,2,4,6,6-pentamethylheptane]
[2]; 293.15 K
  viscosity: 1.29 ± 0.02 mPa·s
  speed of sound: 1204 ± 2.2 m/s
  mass density: 745.5 ± 0.6 kg/m3
[2]; 294 K, Pendant drop shape
  surface tension liquid-gas: 21.8 ± 0.4 mN/m
[2]; 303.15 K
  viscosity: 1.1 ± 0.01 mPa·s
  speed of sound: 1164.9 ± 2.2 m/s
  mass density: 738.2 ± 0.6 kg/m3
[2]; 313.15 K
  viscosity: 0.941 ± 0.012 mPa·s
  speed of sound: 1126.7 ± 2.2 m/s
  mass density: 730.9 ± 0.6 kg/m3
[2]; 323.15 K
  viscosity: 0.827 ± 0.011 mPa·s
  speed of sound: 1089.3 ± 2.2 m/s
  mass density: 723.5 ± 0.6 kg/m3
[2]; 333.15 K
  viscosity: 0.726 ± 0.01 mPa·s
  mass density: 716.1 ± 0.6 kg/m3
[2]; 343.15 K
  viscosity: 0.643 ± 0.01 mPa·s
  mass density: 708.6 ± 0.6 kg/m3
[2]; 353.15 K
  viscosity: 0.573 ± 0.009 mPa·s
  mass density: 700.9 ± 0.5 kg/m3
[2]; 363.15 K
  viscosity: 0.515 ± 0.009 mPa·s
  mass density: 693.2 ± 0.5 kg/m3
[2]; 373.15 K
  viscosity: 0.467 ± 0.008 mPa·s
  mass density: 685.5 ± 0.5 kg/m3

## CCCCCCCCCCCCCCCC [hexadecane]
[2]; 293.15 K
  viscosity: 3.44 ± 0.02 mPa·s
  mass density: 773.7 ± 0.3 kg/m3
[2]; 303.15 K
  viscosity: 2.72 ± 0.02 mPa·s
  mass density: 766.8 ± 0.3 kg/m3
[2]; 313.15 K
  viscosity: 2.21 ± 0.02 mPa·s
  mass density: 759.9 ± 0.3 kg/m3
[2]; 323.15 K
  viscosity: 1.82 ± 0.01 mPa·s
  mass density: 752.9 ± 0.3 kg/m3
[2]; 333.15 K
  viscosity: 1.53 ± 0.01 mPa·s
  mass density: 746 ± 0.3 kg/m3
[2]; 343.15 K
  viscosity: 1.31 ± 0.01 mPa·s
  mass density: 739 ± 0.3 kg/m3
[2]; 353.15 K
  viscosity: 1.13 ± 0.01 mPa·s
  mass density: 731.9 ± 0.3 kg/m3
[2]; 363.15 K
  viscosity: 0.99 ± 0.009 mPa·s
  mass density: 724.8 ± 0.3 kg/m3
[2]; 373.15 K
  viscosity: 0.876 ± 0.009 mPa·s
  mass density: 717.7 ± 0.3 kg/m3
